According to US9844534B2, “PKC delta inhibitors for use as therapeutics” (Faller & Williams Technology, LLC, priority 2012, dated 2017):

Legend:
H727 cells [1] = assay: Cell proliferation assay (MTT/MTS); type: cell-based, human
Excerpt: (§1) Cell Lines: BON1, a human foregut (pancreatic) carcinoid tumor cell line (Parekh et al. 1994) was obtained from Kjell Oberg (Uppsala University, Sweden) through Dr. Evan Vosburgh. H727 cells, derived from a human bronchopulmonary carcinoid tumor (Schuller et al. 1987), were purchased from ATCC. The CNDT 2.5 cell line, initially described as a human midgut carcinoid tumor cell line (Van Buren et al. 2007), was provided by Dr. Lee Ellis, (MD Anderson Cancer Center). The provenance of this cell line is currently under review by the originator. BONI, H727, MCF10 and CNDT 2.5 cells were propagated in 10% FBS (Invitrogen); Dulbecco's Modification of Earle's Media/Hams F-12 50:50 media (Cellgro); 2 mM L-Glutamine (Invitrogen); 200 U Penicillin/ml; 200 μg Streptomycin/ml (Invitrogen); 10 ng/ml Nerve Growth Factor (Invitrogen); 1×MEM Non-Essential Amino Acids (Cellgro); 1×MEM Vitamin Solution (Cellgro); 1 mM Sodium Pyruvate; 0.015 M HEPES buffer (pH7.3) (American Bioanalytical).
(§2) Cell Proliferation Assays—Cell proliferation was assessed using an MTT [3-(4,5-dimethylthiazol-2-yl)-2,5-diphenyltetrazolium bromide] assay (Roche, Mannheim, Germany). The number of viable cells growing in a single well on a 96-well microtiter plate was estimated by adding 10 μl of MTT solution (5 mg/ml in phosphate-buffered saline [PBS]). After 4 h of incubation at 37° C., the stain is diluted with 100 μl of dimethyl sulfoxide. The optical densities are quantified at a test wavelength of 570 nm and a reference wavelength of 690 nm on a multiwell spectrophotometer. In some assays, MTS was used as substrate (Promega, Madison, Wis.), and the absorbance of the product was monitored at 490 nm.

BON1 cells = assay: Cell proliferation assay (MTT/MTS); type: cell-based, human
Excerpt: as §1, §2

CNDT 2.5 cells = assay: Cell proliferation assay (MTT/MTS); type: cell-based, human
Excerpt: as §1, §2

H727 cells [2] = assay: Cytotoxicity assay (LDH release); type: cell-based, human
Excerpt: Briefly, total culture medium was cleared by centrifugation. For assay of released LDH, supernatants were collected.

PKC delta protein = settings: longer periods of exposure; no effect on levels of other PKC isozymes; cited from earlier work
[3] = test system: nontumorigenic murine or human cells; settings: same culture conditions; cited from earlier work
H727 cells [4] = assay: Clonogenic assay; type: cell-based, human; settings: H727, exposure 6-72 hr, replated without inhibitor
Procedure: Clonogenic Assays: 100,000 cells were seeded on 100 mm dishes 5 with 10 ml media per dish (Li et al. 2004). […] Cells were trypsinized; counted via Trypan Blue Exclusion Method in order to determine the number of live cells in the sample, and 500 live cells were seeded in triplicate onto 6 well plates. Cells were monitored for appropriate colony size and re-fed every three to four days. At Day 17, cells were stained with ethidium bromide (Guda et al. 2007) and counted using UVP LabWorks software.
LDH release assesses cytotoxic damage sufficient to compromise membrane integrity over a relatively short time-span. An alternative method, which assesses lethal, but not necessarily immediate, cumulative damage to the tumor cell is a clonogenic assay. In this assay, tumor cells which remain viable after exposure to the compound are tested for their ability to proliferate sufficiently over time to form colonies of tumor cells. H727 treated with vehicle or a PKC delta inhibitor at sub-optimal concentrations varying durations. After replating of viable cells in media without inhibitor, colony numbers were quantitated over time.

PKC delta = PKC delta (Homo sapiens, UniProt Q05655); settings: cultured cells, given as 'in vivo'; read-out: IC50, inhibition of PKC delta in cultured cells; cited from earlier work
Chain of PKC delta (Q05655 whole entry): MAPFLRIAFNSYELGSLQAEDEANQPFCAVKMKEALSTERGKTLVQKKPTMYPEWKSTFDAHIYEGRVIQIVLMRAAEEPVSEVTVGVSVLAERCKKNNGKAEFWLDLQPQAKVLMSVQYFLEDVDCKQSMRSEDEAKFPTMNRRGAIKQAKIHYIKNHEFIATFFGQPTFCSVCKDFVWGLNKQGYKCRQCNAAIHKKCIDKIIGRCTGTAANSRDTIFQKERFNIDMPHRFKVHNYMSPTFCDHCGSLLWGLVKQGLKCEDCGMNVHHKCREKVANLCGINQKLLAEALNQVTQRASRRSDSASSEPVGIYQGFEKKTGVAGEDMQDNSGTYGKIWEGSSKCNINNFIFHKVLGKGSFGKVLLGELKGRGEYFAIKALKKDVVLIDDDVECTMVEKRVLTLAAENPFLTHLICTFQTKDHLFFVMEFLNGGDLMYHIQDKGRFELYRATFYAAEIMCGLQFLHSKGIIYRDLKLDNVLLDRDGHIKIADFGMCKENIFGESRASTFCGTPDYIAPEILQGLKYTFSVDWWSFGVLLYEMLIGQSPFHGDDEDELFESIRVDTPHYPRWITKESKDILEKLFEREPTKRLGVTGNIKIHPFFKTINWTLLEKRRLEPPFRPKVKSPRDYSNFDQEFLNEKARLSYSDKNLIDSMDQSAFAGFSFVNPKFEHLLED

PKC alpha = target: T1, PKC alpha (Homo sapiens, UniProt P17252); assay: PKC kinase activity assay (Omnia Kinase Assay); type: biochemical
T1 construct: purchased Invitrogen
Procedure: PKC Kinase Activity Assays: Assays were carried out using recombinant PKC alpha or PKC gamma, (Invitrogen) and the Omnia® Kinase Assays (Invitrogen) with a “PKC kinase-specific” peptide substrate. Incorporation of a chelation-enhanced fluorophore (CHEF) results in an increase in fluorescence ex360/em485) upon phosphorylation. The kit was used according to the manufacturer's instructions.

Molecule | reduction in relative cell numbers (H727 cells [1]; H727, by 72 hrs, highest concentrations tested) | IC50 (H727 cells [1]; Homo sapiens, NCI-H727, H727, by 48 hrs, read-out: IC50, decrease in cell number) [µM] | reduction in relative cell numbers (BON1 cells; BON1, by 72 hrs, highest concentrations tested) | growth-inhibitory effect on long-term exposure (BON1 cells; BON1, sub-optimal concentration (10 μM), re-fed with inhibitor after 72 hr) | duration of exposure needed to inhibit proliferation (washout) (BON1 cells; BON1, sub-optimal concentration, inhibitor washed out, growth assessed over next 72 hrs) | IC50 (BON1 cells; Homo sapiens, BON1, by 48 hrs, read-out: IC50, decrease in cell number) [µM] | reduction in relative cell numbers (CNDT 2.5 cells; CNDT 2.5, by 72 hrs, highest concentrations tested) | growth-inhibitory effect on long-term exposure (CNDT 2.5 cells; CNDT, sub-optimal concentration (10 μM), re-fed with inhibitor after 72 hr) | IC50 (CNDT 2.5 cells; Homo sapiens, CNDT 2.5, by 48 hrs, read-out: IC50, decrease in cell number) [µM] | cytotoxicity as assessed by LDH release (H727 cells [2]; H727, 24, 48 and 72 hours) | LDH release versus vehicle control, significance (H727 cells [2]; H727, p<0.003) | down-regulation of PKC delta protein in cells (PKC delta protein) | effect on growth of nontumorigenic cells [3] | effect on clonogenic capacity versus DMSO control (H727 cells [4]) | IC50 (PKC delta) [µM] | IC50 (PKC alpha) [µM] | effect on proliferation (BON1 cells; BON1, siRNA knockdown, MTS) | effect on proliferation (CNDT 2.5 cells; CNDT, siRNA knockdown, MTS)
CC(=O)c1c(O)c(C)c(O)c(Cc2c(O)c3c(c(C(=O)/C=C/c4ccccc4)c2O)OC(C)(C)C=C3)c1O [rottlerin] | significant reduction in relative cell numbers | ~5 | significant reduction in relative cell numbers | growth-inhibitory effects persisted to 168 hr | statistically significant by 24 hr of exposure | ~5 | significant reduction in relative cell numbers | growth-inhibitory effects persisted to 168 hr | ~5 | cytotoxicity increasing as a function of time and concentration | reached significance by 24 hr of exposure | significantly down-regulates PKC delta protein | no significant effect on the growth | reached significance (p=0.0051) at 6 hr of exposure | 5 | > 50 |  | 
PKC delta-specific siRNA: siRNA duplexes targeting PKC delta (SEQ ID NO 1 and 2), obtained from Qiagen (chain 1 GAUGAAGGAGGCGCUCAGTT; chain 2 GGCUGAGUUCUGGCUGGACTT; chemistry not given here) |  |  |  |  |  |  |  |  |  |  |  |  |  |  |  |  | profound inhibition of proliferation | profound inhibition of proliferation
